Literature values as cited in patent publication US8410124B2, “Deuterated etravirine” (Concert Pharmaceuticals Inc., priority 2007, dated 2013).

Columns and labels:
[1] = over a 2 hour period
[2] = humans

Compound: Cc1cc(C#N)cc(C)c1Oc1nc(Nc2ccc(C#N)cc2)nc(N)c1Br [etravirine, 4-(6-amino-5-bromo-2-(4-cyanophenylamino)pyrimidin-4-yloxy)-3,5-dimethylbenzonitrile]
- degradation in human liver microsomes [1]: 15%
- excreted largely intact in the feces ([2]; feces): > 85%
- excreted largely intact in the urine ([2]; urine): < 1%
- most common adverse effects of the combined regimen (healthy volunteers, etravirine in combination with lopinavir/ritonavir): diarrhea and headache
- safety and tolerability profile (phase IIb trials with treatment-experienced patients): generally comparable with placebo
- mild side effects (trials with HIV-1-infected patients dosed with etravirine): diarrhea, headache, abdominal pain, acute tonsillitis, flatulence, gastroenteritis, hot flushes, insomnia, intercostal pain, pruritus, somnolence, tachycardia and vomiting
